From the SangsterLogP compilation come the findings set out here.

Broadly, the logP is a log measure of how a compound divides between an organic and an aqueous phase. Low readings indicate a more hydrophilic compound, high ones a more lipophilic compound.

Compound `CCC(C)CNC(=O)CC(O)C(CC(C)C)NC(=O)C(CC=CCNC(=S)NC)NC(=O)C(Cc1ccc2ccccc2c1)Cc1cccc2ccccc12` (stereo unspecified) yielded a logP of 5.23.
`CC(C)CC(NC(=O)C(CCCCNC(=N)N[N+](=O)[O-])NC(=O)C(Cc1cccc2ccccc12)Cc1cccc2ccccc12)C(O)CC(=O)NCCN1CCOCC1` (stereo unspecified): the logP worked out at 4.09.
The same measure for `CNC(=S)NCCCCC(NC(=O)C(CC(=O)N1CCOCC1)Cc1cccc2ccccc12)C(=O)NC(CC(C)C)C(O)CC(=O)NCCN1CCOCC1` (stereo unspecified): 2.43; for `CC(C)(C)OC(=O)NCC#CCC(NC(=O)C(Cc1ccc2ccccc2c1)Cc1cccc2ccccc12)C(=O)NC(CC1CCCCC1)C(O)CC(=O)NCCN1CCOCC1` (stereo unspecified): 6; for `CC(=O)NCC#CCC(NC(=O)C(Cc1ccccc1)NS(=O)(=O)N1CCOCC1)C(=O)NC(CC1CCCCC1)C(O)CC(=O)NCCN1CCOCC1` (stereo unspecified): 2.12.
`CC(C)CC(NC(=O)CC(O)C(CC(C)C)NC(=O)C(CCCCNC(=O)OCc1ccccc1)NC(=O)C(Cc1ccc2ccccc2c1)Cc1cccc2ccccc12)C(=O)NCc1ccccc1` (stereo unspecified): the logP stood at 7.69.
Consider `CCC(C)CNC(=O)CC(O)C(CC1CCCCC1)NC(=O)C(CCCCNC(=S)NC)NC(=O)C(Cc1ccc2ccccc2c1)Cc1cccc2ccccc12` (stereo unspecified), for which the logP was determined as 6.63.
The same measure for `CCC(C)CNC(=O)CC(O)C(CC(C)C)NC(=O)C(CCCn1cccc1)NC(=O)C(Cc1ccc2ccccc2c1)Cc1cccc2ccccc12` (stereo unspecified): 7.09.
For the compound `CCC(C)CNC(=O)C(F)(F)C(O)C(CC(C)C)NC(=O)C(CCCCNC(=NC#N)SC)NC(=O)C(Cc1ccc2ccccc2c1)Cc1cccc2ccccc12` (stereo unspecified), the lipophilicity (logP) was 5.51.
On to `N=C(NCC#CCC(NC(=O)C(Cc1cccc2ccccc12)Cc1cccc2ccccc12)C(=O)NC(CC1CCCCC1)C(O)CC(=O)NCCN1CCOCC1)N[N+](=O)[O-]` (stereo unspecified), for which the logP is 4.73.
As to `CCC(C)CNC(=O)CC(O)C(CC(C)C)NC(=O)C(CCCCCCNC(=S)NC)NC(=O)C(Cc1ccc2ccccc2c1)Cc1cccc2ccccc12` (stereo unspecified), the logP was 5.64.
As for `CCC(C)CNC(=O)CC(O)C(CC(C)C)NC(=O)C(CCCCN)NC(=O)C(Cc1ccc2ccccc2c1)Cc1cccc2ccccc12` (stereo unspecified), the logP was determined as 5.25.
Take `CNC(=S)NCCCCC(C(=O)NC(CC1CCCCC1)C(O)C(F)(F)C(=O)NCCN1CCOCC1)C(=O)C(Cc1ccccc1)NS(=O)(=O)N1CCOCC1` (stereo unspecified): the logP came out at 2.93.
The value for `CNC(=S)NCCCCC(NC(=O)C(Cc1ccccc1)CS(=O)(=O)C(C)(C)C)C(=O)NC(CC1CCCCC1)C(O)CC(=O)NCCN1CCOCC1` (stereo unspecified) was 2.64; that for `CCC(C)CNC(=O)CC(O)C(CC(C)C)NC(=O)C(CC#CCNC(C)=O)NC(=O)C(Cc1ccc2ccccc2c1)Cc1cccc2ccccc12` (stereo unspecified) was 5.32; that for `CCC(C)CNC(=O)CC(O)C(CC(C)C)NC(=O)C(CCCCCNC(=S)NC)NC(=O)C(Cc1ccc2ccccc2c1)Cc1cccc2ccccc12` (stereo unspecified) was 5.41.
`CNC(=S)NCC#CCC(NC(=O)C(Cc1ccccc1)NS(=O)(=O)N1CCOCC1)C(=O)NC(CC1CCCCC1)C(O)CC(=O)NCCN1CCOCC1` (stereo unspecified) had a logP of 2.9.
With `CCC(C)CC(=O)CC(O)C(CC(C)C)NC(=O)C(CCCCNC(N)=O)NC(=O)C(Cc1ccc2ccccc2c1)Cc1cccc2ccccc12` (stereo unspecified), the lipophilicity (logP) amounted to 5.31.
The same measure for `CNC(=S)NCCCCC(NC(=O)C(Cc1ccc2ccccc2c1)Cc1cccc2ccccc12)C(=O)NC(CC1CCCCC1)C(O)CC(=O)NCCN1CCOCC1` (stereo unspecified): 5.46; for `CCC(C)CNC(=O)CC(O)C(CC(C)C)NC(=O)C(CCCCNC(=S)Nc1ccccc1)NC(=O)C(Cc1ccc2ccccc2c1)Cc1cccc2ccccc12` (stereo unspecified): 6.6; for `CNC(=S)NCCCCC(NC(=O)C(Cc1ccc2ccccc2c1)Cc1cccc2ccccc12)C(=O)NC(CC(C)C)C(O)CC(=O)NC(CC(C)C)C(=O)NCc1ccccc1` (stereo unspecified): 6.7.
With `CCC(C)CNC(=O)CC(O)C(CC(C)C)NC(=O)C(CCCCNC(C)=O)NC(=O)C(Cc1ccc2ccccc2c1)Cc1cccc2ccccc12` (stereo unspecified), the log partition coefficient (logP) amounted to 4.38.
As for `CC(C)CC(NC(=O)C(CCCCNC(=O)OCc1ccccc1)NC(=O)C(Cc1ccccc1)NS(=O)(=O)N1CCOCC1)C(=O)C(F)(F)C(=O)NCCN1CCOCC1` (stereo unspecified), the logP is 2.32.
Take `CNC(=S)NCCCCC(NC(=O)C(CC(=O)N1CCOCC1)Cc1cccc2ccccc12)C(=O)NC(CC1CCCCC1)C(O)CC(=O)NCCN1CCOCC1` (stereo unspecified): the logP stood at 1.68.
`CCC(C)CNC(=O)CC(O)C(CC(C)C)NC(=O)C(CCCCNP(=O)(Oc1ccccc1)Oc1ccccc1)NC(=O)C(Cc1ccc2ccccc2c1)Cc1cccc2ccccc12` (stereo unspecified) had a logP of 7.88.
`CNC(=S)NCCCCC(NC(=O)C(Cc1ccc2ccccc2c1)Cc1cccc2ccccc12)C(=O)NC(CC(C)C)C(O)CC(=O)NCCN1CCOCC1` (stereo unspecified) gave a lipophilicity (logP) of 3.91.
Compound `CCC(C)CNC(=O)CC(O)C(CC(C)C)NC(=O)C(CCCCNS(=O)(=O)c1ccc(C)cc1)NC(=O)C(Cc1ccc2ccccc2c1)Cc1cccc2ccccc12` (stereo unspecified) gave a log partition coefficient (logP) of 6.7.
Turning to `CCC(C)CNC(=O)CC(O)C(CC(C)C)NC(=O)C(CC=CCNC(C)=O)NC(=O)C(Cc1ccc2ccccc2c1)Cc1cccc2ccccc12` (stereo unspecified), the logP is 5.56.
`CC(C)CC(NC(=O)C(CCCCNC(=N)N[N+](=O)[O-])NC(=O)C(CC(=O)N1CCOCC1)Cc1cccc2ccccc12)C(O)CC(=O)NCCN1CCOCC1` (stereo unspecified) had a log partition coefficient (logP) of 1.95.
The value for `CSC(=NC#N)NCCCCC(NC(=O)C(Cc1ccc2ccccc2c1)Cc1cccc2ccccc12)C(=O)NC(CC(C)C)C(O)CC(=O)NCCN1CCOCC1` (stereo unspecified) was 4.67; that for `CC(C)CC(NC(=O)CC(O)C(CC(C)C)NC(CCCCNC(=N)N[N+](=O)[O-])NC(=O)C(Cc1ccc2ccccc2c1)Cc1cccc2ccccc12)C(=O)NCc1ccccc1` (stereo unspecified) was 5.51; that for `CCC(C)CNC(=O)CC(O)C(CC(C)C)NC(=O)C(CCCCCNC(=N)N[N+](=O)[O-])NC(=O)C(Cc1ccc2ccccc2c1)Cc1cccc2ccccc12` (stereo unspecified) was 5.1.
Turning to `CNC(=S)NCC#CCC(NC(=O)C(Cc1ccc2ccccc2c1)Cc1cccc2ccccc12)C(=O)NC(CC1CCCCC1)C(O)CC(=O)NCCN1CCOCC1` (stereo unspecified), the lipophilicity (logP) amounted to 5.44.
In turn, `O=CNCC#CCC(NC(=O)C(Cc1cccc2ccccc12)Cc1cccc2ccccc12)C(=O)NC(CC1CCCCC1)C(O)CC(=O)NCCN1CCOCC1` (stereo unspecified) showed a logP of 5.44.
The compound `CNC(=S)NCCCCC(NC(=O)C(Cc1ccc2ccccc2c1)Cc1cccc2ccccc12)C(=O)NC(CC(C)C)C(O)C(F)(F)C(=O)NCCN1CCOCC1` (stereo unspecified) gave a lipophilicity (logP) of 5.5.
As for `CCC(C)CNC(=O)CC(O)C(CC(C)C)NC(=O)C(CCCCn1cccc1)NC(=O)C(CC1=Cc2ccccc2C1)Cc1cccc2ccccc12` (stereo unspecified), the lipophilicity (logP) amounted to 7.21.
Compound `CCC(C)CNC(=O)CC(O)C(CC(C)C)NC(=O)C(CCCCNC(=O)NC)NC(=O)C(Cc1ccc2ccccc2c1)Cc1cccc2ccccc12` (stereo unspecified) had a logP of 5.63.
As for `CNC(=S)NCCCCC(NC(=O)C(Cc1ccccc1)NS(=O)(=O)N1CCOCC1)C(=O)NC(CC1CCCCC1)C(O)CC(=O)NCCN1CCOCC1` (stereo unspecified), the logP is 2.26.
For `CNC(=S)NCCCCC(NC(=O)C(Cc1ccccc1)NS(=O)(=O)N(C)C)C(=O)NC(CC1CCCCC1)C(O)CC(=O)NCCN1CCOCC1` (stereo unspecified), the logP worked out at 2.41.
The same measure for `CCC(C)CNC(=O)CC(O)C(CC(C)C)NC(=O)C(CCCCNC(=S)NC)NC(=O)C(Cc1ccc2ccccc2c1)Cc1cccc2ccccc12` (stereo unspecified): 5.71; for `O=C(CC(O)C(CC1CCCCC1)NC(=O)C(NC(=O)C(Cc1ccccc1)NS(=O)(=O)N1CCOCC1)C1=CN=N1)NCCN1CCOCC1` (stereo unspecified): 2.25.
